Test results: US20130345051A1, “FUNGICIDAL AND BACTERICIDAL COMPOSITION THAT COMPRISES VOLATILE ORGANIC COMPOUNDS OF NATURAL ORIGIN” (BIOFUNGITEK, SOCIEDAD LIMITADA, priority 2011, published 2013)
≈ marks a conversion by molar mass, not a printed value.

Legend:
Botrytis cinerea = assay: Gas-phase bioassay in hermetically sealed vials, growth inhibition of the fungus Botrytis cinerea; format: cell-based; details: compound in the gas phase; for IC50: read-out: IC50 (50% inhibiting concentration)
Protocol: (§1) The antifungal and antibacterial activity of the VOC obtained in Example 1 was tested by bioassay in hermetically sealed vials in which the microorganism was cultured while being exposed to the compound under test in the gas phase at different concentrations. […] The IC50 (50% inhibiting concentration), the MIC (minimum inhibiting concentration) and the MLC (minimum lethal concentration) were calculated.

Erwinia carotovora = assay: Gas-phase bioassay in hermetically sealed vials, growth inhibition of the bacterium Erwinia carotovora; format: cell-based; details: compound in the gas phase; for IC50: Pectobacterium carotovorum, read-out: IC50 (50% inhibiting concentration)
Protocol: as §1

SMILES | MIC (minimum inhibiting concentration) (Botrytis cinerea) [mg/Lair] | MLC (minimum lethal concentration) (Botrytis cinerea) [mg/Lair] | IC50 (Botrytis cinerea) [µg/mL] | IC50 (Erwinia carotovora) [µg/mL] | MIC (minimum inhibiting concentration) (Erwinia carotovora) [mg/Lair] | MLC (minimum lethal concentration) (Erwinia carotovora) [mg/Lair]
CC1(C)[C@@H]2CC[C@@]1(C)[C@H](O)C2 (racemic) [isoborneol] | 40 | 40 | 5 (≈ 32.4 µM) | > 150 | >150 | >150
CCCCC(CC)CO (stereo not drawn) [2-ethyl-1-hexanol] | 5 | 10 | 4 (≈ 30.7 µM) | 15 (≈ 115 µM) | 50 | 75
CCCCCCO [hexanol] | 20 | 40 | 15 (≈ 147 µM) | 150 (≈ 1470 µM) | >150 | >150
